Experiments:
[1] = biological target: T1, EGF receptor tyrosine kinase (Homo sapiens, UniProt P00533); assay: In vitro assay: ability of a test compound to inhibit the enzyme EGF receptor tyrosine kinase (Test (a)); type: biochemical; details: EGF receptor tyrosine kinase from A431 cells; approximate values
T1 construct: Receptor tyrosine kinase was obtained in partially purified form from A431 cells; endogenous in cells; host or cells: A431 cells (human vulval carcinoma), Triton X-100 solubilised membrane fraction
T1 sequence (P00533 25-1210): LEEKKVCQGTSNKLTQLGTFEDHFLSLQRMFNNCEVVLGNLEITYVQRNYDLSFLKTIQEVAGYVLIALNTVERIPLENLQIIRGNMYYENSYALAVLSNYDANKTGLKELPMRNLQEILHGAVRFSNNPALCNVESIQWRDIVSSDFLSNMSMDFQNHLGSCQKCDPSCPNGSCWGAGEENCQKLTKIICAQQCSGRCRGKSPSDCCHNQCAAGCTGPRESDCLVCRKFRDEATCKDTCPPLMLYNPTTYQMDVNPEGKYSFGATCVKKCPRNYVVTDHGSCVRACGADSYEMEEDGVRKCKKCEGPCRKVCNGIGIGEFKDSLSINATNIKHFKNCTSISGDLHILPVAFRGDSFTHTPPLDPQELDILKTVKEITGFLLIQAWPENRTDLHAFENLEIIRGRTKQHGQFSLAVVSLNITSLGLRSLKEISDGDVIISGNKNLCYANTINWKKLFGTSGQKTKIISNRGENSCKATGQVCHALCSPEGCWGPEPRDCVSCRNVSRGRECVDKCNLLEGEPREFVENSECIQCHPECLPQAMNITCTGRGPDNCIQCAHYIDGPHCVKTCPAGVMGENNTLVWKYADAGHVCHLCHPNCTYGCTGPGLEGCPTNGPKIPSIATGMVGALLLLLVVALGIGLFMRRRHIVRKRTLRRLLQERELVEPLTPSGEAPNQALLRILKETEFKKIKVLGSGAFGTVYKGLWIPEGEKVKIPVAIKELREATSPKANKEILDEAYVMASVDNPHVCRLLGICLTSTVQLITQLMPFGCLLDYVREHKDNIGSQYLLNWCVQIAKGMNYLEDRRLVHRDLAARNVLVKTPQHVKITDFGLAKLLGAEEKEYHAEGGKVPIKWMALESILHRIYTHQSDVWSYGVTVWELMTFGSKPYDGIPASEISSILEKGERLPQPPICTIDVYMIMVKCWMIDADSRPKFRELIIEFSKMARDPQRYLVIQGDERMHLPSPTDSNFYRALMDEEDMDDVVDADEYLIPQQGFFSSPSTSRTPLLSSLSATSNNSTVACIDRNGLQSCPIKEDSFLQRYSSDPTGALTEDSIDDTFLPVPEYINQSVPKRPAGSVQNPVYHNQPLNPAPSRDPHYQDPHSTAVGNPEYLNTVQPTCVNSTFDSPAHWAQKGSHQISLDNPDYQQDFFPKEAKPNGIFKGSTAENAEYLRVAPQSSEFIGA
Method: (a) An in vitro assay which determines the ability of a test compound to inhibit the enzyme EGF receptor tyrosine kinase.
A-431 cells were grown to confluence using Dulbecco's modified Eagle's medium (DMEM) containing 5% fetal calf serum (FCS). […] The homogenate was centrifuged at 400 g for 10 minutes at 0-4° C. The supernatant was centrifuged at 25,000 g for 30 minutes at 0-4° C. The pelleted material was suspended in 30 mM Hepes buffer at pH 7.4 containing 5% glycerol, 4 mM benzamidine and 1% Triton X-100, stirred for 1 hour at 0-4° C., and recentrifuged at 100,000 g for 1 hour at 0-4° C. The supernatant, containing solubilised receptor tyrosine kinase, was stored in liquid nitrogen.
There was thus obtained the test enzyme solution.
Equal volumes of this solution and a solution of epidermal growth factor (EGF; 20 μg/ml) were mixed.
[γ-^32 P]ATP (3000 Ci/mM, 250 μCi) was diluted to a volume of 2 ml by the addition of a solution of ATP (100 μM) in distilled water. An equal volume of a 4 mg/ml solution of the peptide […]in a mixture of 40 mM Hepes buffer at pH 7.4, 0.1% Triton X-100 and 10% glycerol was added.
The test compound/EGF mixture solution (5 μl) was added to the test enzyme solution (10 μl) and the mixture was incubated at 0-4° C. for 30 minutes. The ATP/peptide mixture (10 μl) was added and the mixture was incubated at 25° C. for 10 minutes. The phosphorylation reaction was terminated by the addition of 5% trichloroacetic acid (40 μl) and bovine serum albumin (BSA; 1 mg/ml, 5 μl). The mixture was allowed to stand at 4° C. for 30 minutes and then centrifuged. An aliquot (40 μl) of the supernatant was placed onto a strip of Whatman p 81 phosphocellulose paper. The strip was washed in 75 mM phosphoric acid (4×10 ml) and blotted dry. Radioactivity present in the filter paper was measured using a liquid scintillation counter (Sequence A). The reaction sequence was repeated in the absence of the EGF (Sequence B) and again in the absence of the test compound (Sequence C).
Receptor tyrosine kinase inhibition was calculated as follows: [formula]

KB cells = assay: In vitro assay: inhibition of the EGF-stimulated growth of the human naso-pharyngeal cancer cell line KB (Test (b)); type: cell-based; details: 72 h, EGF 10 ng/ml, 3 days, MTT, approximate values
Method: (b) An in vitro assay which determines the ability of a test compound to inhibit the EGF-stimulated growth of the human naso-pharyngeal cancer cell line KB.
KB cells were seeded into wells at a density of 1×10^4 -1.5×10^4 cells per well and grown for 24 hours in DMEM supplemented with 5% FCS (charcoal-stripped). Cell growth was determined after incubation for 3 days by the extent of metabolism of MTT tetrazolium dye to furnish a bluish colour. Cell growth was then determined in the presence of EGF (10 ng/ml) or in the presence of EGF (10 ng/ml) and a test compound at a range of concentrations. An IC50 value could then be calculated.

Row | Compound | IC50 [1] [nM] | IC50 (KB cells) [nM]
1 | COCCNc1ccc2ncnc(Nc3ccc(F)cc3F)c2c1 [Example 4, 4-(2',4'-difluoroanilino)-6-(2-methoxyethylamino)quinazoline] | 300 | 1100
2 | COCCNc1ccc2ncnc(Nc3ccc(F)c(F)c3)c2c1 [Example 2, 4-(3',4'-difluoroanilino)-6-(2-methoxyethylamino)quinazoline] | 300 | 500
3 | COCCNc1ccc2ncnc(Nc3ccc(F)c(Cl)c3)c2c1 [Example 3, 4-(3'-chloro-4'-fluoroanilino)-6-(2-methoxyethylamino)quinazoline] | 40 | 300
4 | COCCCNc1ccc2ncnc(Nc3ccc(F)c(Cl)c3)c2c1 [Example 1, 4-(3'-chloro-4'-fluoroanilino)-6-(3-methoxypropylamino)quinazoline] | 50 | 100

— US5942514A, “Quinazoline derivatives” (Zeneca Limited, priority 1995, dated 1999)
